Literature values as cited in patent US20040142353A1, “Compositions and methods for identifying plants having increased tolerance to imidazolinone herbicides” (priority 2002, published 2004).
Like-named read-outs stand apart in the source and are kept apart here.

What was measured:
[1] = test system: B. napus mutants P1 and P2; details: B. napus (cv 'Topas') mutants P1 and P2
[2] = test system: B. napus P1, P2, and P1×P2 hybrid; details: field trials

| Compound | tolerance of mutant AHAS enzyme relative to wild type enzyme (AHAS enzyme; AHAS enzyme of homozygous P1 mutant vs wild type enzyme) | tolerance of mutant AHAS enzyme relative to wild type enzyme (AHAS enzyme; AHAS enzyme of homozygous P2 mutant vs wild type enzyme) [times] | level of herbicide tolerated by mutant plants [1] | application rate withstood with no loss of yield [2] |
| --- | --- | --- | --- | --- |
| CCc1cnc(C2=NC(C)(C(C)C)C(=O)N2)c(C(=O)O)c1 (centres unmarked) [PURSUIT®, 2-[4,5-dihydro-4-methyl-4-(1-methylethyl)-5-oxo-1H-imidazol-2-yl]-5-ethyl-3-pyridinecarboxylic acid] | only slightly more tolerant | 500 | approaching ten times the field-recommended rates | – |
| methyl esters of 2-[4,5-dihydro-4-methyl-4-(1-methylethyl)-5-oxo-1H-imidazol-2-yl]-4-methylbenzoic acid and 2-[4,5-dihydro-4-methyl-4-(1-methylethyl)-5-oxo-1H-imidazol-2-yl]-5-methylbenzoic acid [ASSERT®] | – | – | approaching ten times the field-recommended rates | up to 800 g/ha |
